Source: the METLIN SMRT retention time set (Domingo-Almenara et al. 2019)

assay: gradient 5% acetonitrile 3 min, to 50% in 2 min, to 85% in 15 min, held 3 min, 100 µL/min; settings: column: Zorbax Extend-C18 2.1 x 50 mm; eluents: water / acetonitrile, 0.1% formic acid
Summary of the method: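 The system's dead and dwell volumes were 40 μL and 900 μL, with a Zorbax Extend-C18 column (2.1 × 50 mm, 1.8 μm) run at 100 μL/min in water and acetonitrile containing 0.1% formic acid each. Pure standards were analyzed in mixtures of ~100 molecules by HPLC–quadrupole time-of-flight mass spectrometry in positive and negative ionization mode. Retention time was assigned from computationally picked, manually inspected adduct peaks.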

RP-LC retention time [s]	SMILES
945	O=C(Cn1nc2c3cc(-c4ccc(F)cc4)nn3ccn2c1=O)Nc1ccccc1Br
935	C[C@@H]1CN(C(=O)c2ccsc2)C[C@H]1c1nc(-c2ccccc2)no1
708	Nc1ccc2c(c1)nnn2-c1ccccc1
878	c1ccc(CNc2nnc(-c3nc(C4CC4)no3)c3ccccc23)cc1
693	c1ccc(COCCc2noc(C3CN(Cc4ccccc4)C3)n2)cc1
640	O=C(CCCc1c[nH]c2ccccc12)NC1CCN(c2ccc(=O)[nH]n2)C1 (stereo not drawn)
678	COc1ccc(-c2cn3c(CC(=O)NCc4cccs4)csc3n2)cc1OC
867	O=C(CSc1cc(-n2ccc(C(=O)NC3CC3)n2)ncn1)Nc1ccc(Cl)cc1F
788	Cc1nn(CCCC(=O)N2CCOCC2)c(=O)c2c(-n3cccc3)n(-c3ccccc3)nc12
687	O=C(CCNc1c(-c2ccccc2)nc2cnccn12)NCc1ccc(F)cc1
568	CCCNC(=O)CN1CCN(c2cc(C(=O)O)c3cc(NC(=O)C(C)C)ccc3n2)CC1
683	CC(C)Cn1c(CCNC(=O)c2ccccc2)nc2cccnc21
816	CC(C)(C)Sc1ccc2nn(CC(=O)Nc3ccccc3C(F)(F)F)c(=O)n2n1
1120	CC1CCN(c2cc3c(cc2NC(=O)COc2ccc(Cl)cc2)n(C)c(=O)c(=O)n3C)CC1
835	Cc1ccc(-c2noc(-c3cc(N4CCN(C)CC4)nc4ccccc34)n2)cc1
645	COc1cccc(CC(=O)NCC(=O)Nc2nc3ccccc3n2C)c1
930	COc1ccc(OCC(=O)N2CCCC2c2nc(-c3ccccc3)no2)cc1 (stereo not drawn)
971	CCCOc1ccc(-c2nc(N3CCCCCC3)c3ccccc3n2)cc1
884	O=C(CCC1CCCN(C(=O)Nc2ccc(Cl)cc2)C1)NCc1ccccc1 (stereo not drawn)
689	CCOc1ccc(NC(=O)C2CCCN(c3cnc4nccnc4c3)C2)cc1 (stereo not drawn)
780	COc1ccc(NC(=O)Cn2c(=O)c(CCC(=O)NCC(C)C)nc3ccccc32)c(OC)c1
827	CCn1ccc(C(=O)N2CCN(c3cc(-c4ccc(Cl)cc4)[nH]n3)CC2)n1
880	CC(CCc1ccccc1)NC(=O)Cn1nc2c(Oc3ccccc3)nccn2c1=O (stereo not drawn)

RP-LC retention time [s]	SMILES
896	CC(C)N1C(=O)c2cccnc2Sc2cc(NC(=O)c3ccccc3F)ccc21
780	CC(=O)c1cccc(NC(=O)CN2C(=O)C3CCCCN3c3ccc(C(=O)N4CCCC4)cc32)c1 (stereo not drawn)
562	COc1ccc(C(=O)N2C[C@@H](Oc3cccnc3)C[C@H]2C(=O)NC2CC2)cn1
625	CCOCCCNC(=O)C1CCCN(c2nc3ccc(Br)cc3[nH]2)C1 (stereo not drawn)
878	O=C(Nc1ncc(Cc2cccc3ccccc23)s1)C1CC1
838	O=C(CN1CCc2ccccc2C1C(=O)N1CCCC1)NCc1cccc(C(F)(F)F)c1 (stereo not drawn)
659	O=C(CSc1ccc(F)cc1)Nc1cccc2ccc(-n3ccnc3)nc12
924	CC(C)c1nc(-n2cccc2)sc1C(=O)NCCc1ccc(S(N)(=O)=O)cc1
712	CC(C)CCNC(=O)C1(C)Cn2nc(C(=O)NCc3ccccc3)cc2C(=O)N1C (stereo not drawn)
819	Cc1ccc(NC(=O)CN2C(=O)NC(c3ccccc3Cl)C3=C2COC3=O)cc1C (stereo not drawn)
725	O=C(Cn1nc2c3ccc(F)cc3ncn2c1=O)Nc1ccccc1Cl
542	O=C(NCCc1cn2c(n1)SCC2)C(=O)Nc1ccc(F)cc1
1250	Cc1ccc(C(=O)NC2(c3nc(-c4ccccc4)no3)CCCCC2)cc1C
666	CCc1ccc(CNC(=O)CCC(=O)N2CCCn3nc(C)cc32)cc1
810	Cc1ccc(CNC(=O)CN2CCN(Cc3cccc(Cl)c3)C2=O)o1
769	O=C(NC1CCCC1)C1CC(=O)N(CCc2c[nH]c3ccc(Cl)cc23)C1 (stereo not drawn)
833	CCCn1cc(CCNC(=O)c2cccc(Br)c2)c2cccnc21
619	O=C(O)CCNc1c(-c2ccc(F)cc2)nc2cnccn12
795	Cc1ccc(NC(=O)CSc2nc(N3CCCCC3)nc3ccccc23)cc1C
788	COc1ccc(-c2noc(C3CCCN3C(=O)CNC(=O)c3cccs3)n2)cc1 (stereo not drawn)
575	O=C(NCCc1nnc2ccc(SCc3ccccn3)nn12)c1ccccc1
1090	CC(C)c1ccc(NC(=O)Cn2nc(N3CCCC3)c3ccccc3c2=O)cc1

More lines, now with the values behind:

SMILES	RP-LC retention time [s]
COc1ccc2nc(NC(=O)C3CCN(c4nc(-c5ccc(OC)c(OC)c5)no4)CC3)sc2c1	933
C[C@@H]1CN(C(=O)NC2CCCC2)C[C@H]1c1nc(-c2ccncc2)no1	671
CN(C)S(=O)(=O)c1ccc(-c2nnc(C(=O)N3CCC4(CC3)OCCO4)o2)cc1	746
CCOC(=O)c1nn(-c2ccc(C)cc2)c(=O)cc1NC(=O)c1cc(Cl)ccc1OC	1140
Cc1ccc(C(=O)N2C[C@@H]3C[C@H]2C[C@@H]3NS(C)(=O)=O)cc1F	676
CCC(CC)NS(=O)(=O)c1cc(-c2[nH]ncc2C(=O)N(C)C)oc1C	659
Cc1ccc(-n2ncc3c(N4CCN(CCO)CC4)ncnc32)cc1Cl	651
CCCn1ccc2sc(C)c(C(=O)NCc3ccc(OC)cc3)c2c1=O	836
CCN(CC)C(=O)Cn1ccc(NC(C)=O)nc1=O	602
O=C(CN1C(=O)COc2ccccc21)N1CCSCC1	712
CN(C)S(=O)(=O)c1ccc(-c2nnc(C(=O)N3CCCCC3)o2)cc1	824
CCN(CC)S(=O)(=O)c1cc(-c2nnc(-c3ccccc3)o2)ccc1C	1080
Cc1ccc(-c2ccc(=O)n(CCc3nc(-c4ccc5c(c4)OCO5)no3)n2)cc1	711
COc1cc(C)nc(-n2nc(C)cc2OC)n1	711
Cc1oc(C2CCN(C(=O)Nc3ccc4c(c3)CCC4)CC2)nc1C(=O)N1CCCC1	861
Cc1ccc(-c2ncccc2CNS(=O)(=O)c2cccc(Cl)c2)cc1	766
CC(C)(C)c1cc(Br)ccc1OCC(=O)Nc1ncn[nH]1	797
Cc1nn(C(C)C(=O)NCc2ccccn2)c(=O)c2c(C)n(-c3ccccc3)nc12 (stereo not drawn)	638
Fc1ccccc1-c1noc(-c2nnn3c2COC(c2ccc(Cl)cc2)C3)n1 (stereo not drawn)	1160
Cc1ccc(CN2CCN(C3CCN(C(=O)Nc4ccc(F)cc4F)CC3)C(=O)C2=O)cc1	748
COCc1nc(CCNC(=O)NC2CCCCC2)no1	691
O=C(Nc1cnn(-c2ncc(N3CCCCC3)cn2)c1)c1ccncc1	662

SMILES	RP-LC retention time [s]
O=c1c(=O)n(-c2ccccc2)ccn1Cc1nc(-c2ccc(Cl)cc2)no1	877
Cc1[nH]c(C)c(S(=O)(=O)N2CCC(C(=O)Nc3ccccc3F)CC2)c1C(=O)N1CCCC1	720
COc1cc([C@@H]2c3cc4c(cc3[C@H](O)[C@@H](CO)[C@@H]2C(=O)N2CCN(c3ccccc3)CC2)OCO4)cc(OC)c1OC	749
CC(C)(C)OC(=O)Cn1cnc2c(-c3ccc(Cl)cc3)csc2c1=O	1120
CC(=O)Nc1cccc(C2=NN(C(C)=O)C(c3ccc4nccnc4c3)C2)c1 (stereo not drawn)	617
CN(Cc1ccsc1)C(=O)NC1CCCC1	792
Cc1nn(-c2ccc(N3CCCC3)nn2)c(C)c1CCC(=O)N1CCN(c2ncccn2)CC1	605
C=CCn1nnc(NCc2ccc(-c3ccc(Cl)cc3Cl)o2)n1	1160
CCc1noc(NC(C)=O)c1-c1ccc(OC)c(S(=O)(=O)Nc2ccc(F)cc2C)c1	796
Cc1ccc(-c2cc3c4nnc(SCC(=O)Nc5cccc(C)c5C)n4ccn3n2)cc1C	1000
O=C(c1ccc2ccnc(N3CCN(c4ccc(F)cc4)CC3)c2c1)N1CCC2(CC1)OCCO2	724
CCOC(=O)c1ccccc1NC(=O)c1nc(SC)ncc1Cl	1240
COC(=O)N[C@@H](C)CNc1nccc(-c2cn(C(C)C)nc2-c2cc(Cl)cc(NS(C)(=O)=O)c2F)n1	792
COc1ccc(F)cc1S(=O)(=O)NCCOc1ccc(-c2ccco2)nn1	742
CCC(=O)N1CC(=O)Nc2ccc(Br)cc2C1c1ccccc1 (stereo not drawn)	749
CCOc1ccc(C(=O)NC2(c3nc(-c4cccnc4)no3)CCCCC2)cc1OCC	998
O=C(NCCC1CCN(C(=O)Nc2cc(F)cc(F)c2)CC1)c1ccoc1	798
Cc1ccc(Nc2c(-c3ccccc3)nc3cccc(C)n23)cc1	757
Cc1ccc([N+](=O)[O-])cc1NC(=O)Nc1cccc(F)c1	1010
COC1CN(c2cccc(F)c2)C12CCN(Cc1ccc(C)o1)CC2 (stereo not drawn)	745
CCCN1C(=O)c2cc(S(=O)(=O)N3CCCC3)ccc2Oc2cccnc21	913
